The text below walks through data of patent US12465594B2 (Brown University, priority 2018, dated 2025).

Assay [1] addresses HEK293 cells expressing FLAG-CRFBP(10 kD)-HA-CRF2α (Homo sapiens, UniProt P24387+Q13324). The settings on record: 384-well format.
Assay [2] deals with NMDAR EPSCs in VTA dopamine neurons. In words: Electrophysiology: CRF potentiation of NMDAR EPSCs in VTA slices. Type of assay: cell-based, mouse. The settings on record: CRF 1 μM, VTA-DA neurons, acute brain slices. The source says: Male and female mice (n=44; 6-10 weeks) were anesthetized with Euthasol (Butler-Schein). Brains were rapidly removed and placed in ice-cold NMDG-based artificial Cerebrospinal Fluid (aCSF) cutting solution containing (in mM): 92 NMDG, 20 HEPES, 25 glucose, 30 NaHCO3, 2.5 KCl, 1.2 NaPO4 saturated with 95% O2/5% CO2 with an osmolarity of 305-308 mOsm (Advanced Cell Diagnostics). The brain was cut in ice-cold NMDG solution to obtain horizontal VTA slices, 230 μm thick, using a Leica vibratome (Leica VT1200) and slices were incubated in warm NMDG solution (34° C.) for <5 minutes before being placed in a modified aCSF holding solution (in mM): 92 NaCl, 20 HEPES, 25 glucose, 30 NaHCO3, 2.5 KCl, 1.2 NaPO4 (305-308 mOsm). Slices were incubated at room temperature for at least 1 hour before recording.
Whole-cell patch clamp of the lateral VTA was performed under the guidance of IR-DIC optics on an Olympus BX5iWI microscope. Cells were patched with 1.8-3 MO resistance glass microelectrodes containing the following internal solution (in mM): 117 cesium methanesulfonate, 20 HEPES, 0.4 EGTA, 2.8 NaCl, 5 TEA-CI, 4 Mg-ATP, 0.4 Na-GTP, and 5 QX-314 (280-285 mOsm). Dopamine cells were identified by the following criteria: 1) large multipolar soma, 30-40 μm in diameter, 2) tonic firing of <4 Hz when cell attached, 3) large […] with negative voltage step (identified immediately following break in). […] Series resistance was monitored online. […]
For electrophysiology measures, excitatory post-synaptic currents (EPSCs) were normalized to 7 minute of averaged baseline responses, prior to drug application. […] Results are reported as M±SEM a in bar graphs comparing drug to vehicle and analyzed by a one-way ANOVA and post-hoc comparisons to vehicle were performed using a Bonferroni multiple comparisons correction measures (**p<0.01). […]
NMDAR excitatory postsynaptic currents (EPSCs) were recorded from VTA dopamine (DA) neurons in acute brain slices from male and female mice. […]

Sequence of HEK293 cells expressing FLAG-CRFBP(10 kD)-HA-CRF2α (P24387+Q13324 fused): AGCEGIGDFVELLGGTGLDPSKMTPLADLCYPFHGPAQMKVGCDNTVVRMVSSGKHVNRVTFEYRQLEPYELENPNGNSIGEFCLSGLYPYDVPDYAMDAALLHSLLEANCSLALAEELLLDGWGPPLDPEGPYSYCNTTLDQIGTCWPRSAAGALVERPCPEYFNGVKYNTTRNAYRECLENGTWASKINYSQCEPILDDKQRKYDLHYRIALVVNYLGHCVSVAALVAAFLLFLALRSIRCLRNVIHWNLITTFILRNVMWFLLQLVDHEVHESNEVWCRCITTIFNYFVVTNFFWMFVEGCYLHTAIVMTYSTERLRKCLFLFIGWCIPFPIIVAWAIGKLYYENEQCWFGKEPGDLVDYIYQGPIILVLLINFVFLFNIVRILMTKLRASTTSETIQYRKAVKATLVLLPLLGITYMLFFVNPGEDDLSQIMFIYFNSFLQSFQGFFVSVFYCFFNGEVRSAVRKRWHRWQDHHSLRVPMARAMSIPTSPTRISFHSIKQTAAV

For the substance “corticotropin releasing factor [CRF, reference compound]”, the “EC80, CRF-induced intracellular calcium release” value in assay [1] is 1000 nM. In assay [2], the “Effect of CRF on NMDAR EPSCs” value is reported as “potentiated NMDA receptor EPSCs”.
